Laboratory results: US8822513B2, “Compounds for treatment of cancer” (GTX, Inc., priority 2010, dated 2014)
Like-named read-outs stand apart in the source and are kept apart here.

How the values were obtained:
[1] = system: A375 melanoma cells; test: SRB cytotoxicity assay, A375; type: cell-based, human; conditions: Table 12; 48 h; read-out: IC50 ± SEM A375
[2] = system: PC-3 cells
Source text: (§1) Cells were stained with SRB solution.
Cells were stained with sulphorhodamine B (SRB) solution.

[3] = system: LNCaP cells; test: SRB cytotoxicity assay, LNCaP; type: cell-based, human; conditions: Table 12; 96 h; read-out: IC50 ± SEM LNCaP
Source text: as §1

[4] = system: PPC-1 cells
Source text: as §1

[5] = system: DU 145 cells; test: SRB cytotoxicity assay, DU 145; type: cell-based, human; conditions: Table 12; 96 h; read-out: IC50 ± SEM Du 145
Source text: as §1

[6] = system: B16-F1 melanoma cells; test: SRB cytotoxicity assay, B16-F1; type: cell-based, mouse
[7] = system: WM-164 melanoma cells; test: SRB cytotoxicity assay, WM-164; type: cell-based, human; conditions: Table 12; 48 h; read-out: IC50 ± SEM WM164
[8] = Metabolic stability in human liver microsomes; conditions: for Half life in Human liver microsome: Table 20
[9] = system: Bovine brain tubulin; test: In vitro tubulin polymerization assay (bovine brain tubulin); type: biochemical
Protocol: The spectrophotometer was maintained at 37° C. for tubulin polymerization.

[10] = Rotarod test (in vivo neurotoxicity); design: species or system mouse; conditions: ICR mice; 1h 5 or 15 mg/kg, vinblastine 0.5 mg/kg, i.p. daily
Protocol: ICR mice received training three times a day for two days to enable them to stay on the rotating rod for >120 seconds at 12 rpm. Mice were then randomized by the length of time that they could stay on the rotating rod and divided into 7-8 mice per group. […] The rotarod test was performed twice a week. […] The rod speed was increased from […] to 40 rpm over a period of 5 min. Performance was measured as the length of time that a mouse could stay on the rotating rod.

[11] = system: tubulin (colchicine, vinblastine, paclitaxel binding sites); test: MS competitive binding assay
Source text: Each reaction was run in triplicate.

[12] = system: PC-3 xenografts; test: In vivo efficacy, PC-3 prostate tumor xenograft in nude mice; conditions: 50 mg/kg i.p.
[13] = system: PC-3 cells; test: Apoptosis detection by ELISA (cytoplasmic DNA-histone complexes), PC-3; type: cell-based, human; conditions: PC-3 and A375 cells, 24 h
Source text: The levels of DNA-histone complexes were used to represent cell apoptosis.
Quantification of the enrichment of mono- and oligonucleosomes in the cytoplasm was used to determine the ability of the compounds to induce apoptosis (cell death detection ELISA PLUS, Roche, Germany) following the manufacturer's instructions.

[14] = system: NCI/ADR-RES cells; test: SRB cytotoxicity assay, NCI/ADR-RES (P-gp over-expressing); type: cell-based; conditions: Homo sapiens
[15] = system: prostate cancer cell lines (LNCaP, PC-3, DU-145, PPC-1); test: SRB cytotoxicity, prostate cancer cell lines (panel statements); conditions: Homo sapiens, read-out: IC50 against prostate cancer cells
[16] = Pharmacokinetic study in Sprague-Dawley rats; conditions: rat
[17] = system: PC-3/TxR cells; test: SRB cytotoxicity assay, paclitaxel-resistant PC-3/TxR; conditions: Table 15; data in parentheses; IC50 values in PC-3 and PC-3/TxR compared
[18] = system: PC-3/TxR cells
[19] = Metabolic stability in dog liver microsomes; type: in vitro ADME; conditions: Table 20
[20] = Metabolic stability in rat liver microsomes; type: in vitro ADME; conditions: Table 20
[21] = Metabolic stability in mouse liver microsomes; type: in vitro ADME; conditions: Table 20
[22] = Metabolic stability in monkey liver microsomes; type: in vitro ADME; conditions: Table 20
[23] = Aqueous solubility, Multiscreen Solubility Filter Plate, PBS pH 7.4; type: physicochemical; conditions: HCl salt, vs 1h
[24] = system: three melanoma cell lines and four human prostate cancer cell lines; test: SRB cytotoxicity, melanoma and prostate cancer cell lines (ranges and averages over the panel); type: cell-based; conditions: Homo sapiens; text on Tables 2, 3, 12, 21; read-out: IC50 (range over cell lines)
[25] = Pharmacokinetic study in ICR mice; conditions: 15 mg/kg i.v.
[26] = system: A375 melanoma xenografts; test: In vivo efficacy, A375 melanoma xenograft in nude mice (SMART compounds); design: species or system mouse; conditions: 15 mg/kg i.p.
[27] = ICR mice, 4 consecutive days i.p.
[28] = system: B16-F1 melanoma tumors; test: In vivo efficacy, B16-F1 melanoma in C57/BL mice; design: species or system mouse; conditions: 60 mg/kg i.p. daily, 14 days
Protocol: Female C57/BL mice, age 4-6 weeks, were purchased from Harlan Laboratories (Harlan Laboratories Inc., Indianapolis, Ind.). The animal housing met the Association for Assessment and Accreditation and Laboratory Animal Care specifications. All of the procedures were conducted in accordance with guidelines of our Institutional Animal Care and Use Committee.
Tumor volume was expressed in cubic millimeters.

[29] = Table 12, 48 h, read-out: IC50 ± SEM B16-F1

For `O=C(c1ccc(F)cc1)c1c[nH]c(-c2ccc(O)cc2)n1` [12kb], the IC50 [1] was 10000 nM, the IC50 ([2]; read-out: IC50 ± SEM PC-3, Table 12, 96 h) was > 10000 nM and the IC50 [3] was > 10000 nM. The IC50 ([4]; read-out: IC50 ± SEM PPC-1, Table 12, 96 h) was > 10000 nM, the IC50 [5] was > 10000 nM and the IC50 [6, 29] was > 10000 nM. The IC50 [7] was > 10000 nM.

For `COc1cc(C(=O)c2csc(-c3ccccc3)n2)cc(OC)c1OC` [1h, (2-Phenyl-thiazol-4-yl)-(3,4,5-trimethoxy-phenyl)-methanone], the “Half-life in HLM (Phase I + II)” value ([8]; Table 16B, Phase I + II (UDP-glucuronic acid present)) was 17 min, the “Half life in Human liver microsome” value [8] was 17 min and the “inhibition of tubulin polymerization” value ([9]; 10 μM (Example 22)) was 90%. For the same compound, the “inhibition of tubulin polymerization” value ([9]; 10 μM, after 20 min, vs vehicle) was 47%, the “time on the rotating rod vs vehicle group” value [10] was “no significant difference” and the “competition with colchicine-tubulin binding” value [11] was “specifically competed with colchicine binding to tubulin”.

In the case of `COc1cc(C(=O)c2csc(-c3ccc(O)cc3)n2)cc(OC)c1OC` [2l, (2-(4-Hydroxyphenyl)thiazol-4-yl)(3,4,5-trimethoxyphenyl)methanone], the “% T/C” value [12] is reported as 34%, the “inhibition of tubulin polymerization” value ([9]; 10 μM (Example 22)) is reported as 55% and the concentration inducing apoptosis [13] is reported as “greater than or equal to 200 nM”.

With `CC[C@]1(O)C[C@@H]2CN(CCc3c([nH]c4ccccc34)[C@@](C(=O)OC)(c3cc4c(cc3OC)N(C)[C@H]3[C@@](O)(C(=O)OC)[C@H](OC(C)=O)[C@]5(CC)C=CCN6CC[C@]43[C@@H]65)C2)C1` [Vinblastine, vinblastine, reference compound] the “time on the rotating rod vs vehicle group” value [10] was “gradually reduced the time” and the “competition with colchicine-tubulin binding” value [11] was “did not inhibit the colchicine-tubulin binding”.

In the case of `COc1cc(C(=O)c2c[nH]c(-c3ccc(Cl)cc3)n2)cc(OC)c1OC` [12fa, (2-(4-chlorophenyl)-1H-imidazol-4-yl)(3,4,5-trimethoxyphenyl)methanone], the “Half-life in HLM (Phase I)” value ([8]; Table 16B, Phase I) is reported as 44 min and the IC50 ([14]; Table 12, read-out: IC50 ± SEM NCl/ADR-RES) is reported as 19 nM.

In the case of `COc1cc(C(=O)c2cccc(-c3ccccc3)n2)cc(OC)c1OC` [1c, (6-Phenylpyridin-2-yl)(3,4,5-trimethoxyphenyl)methanone], the IC50 [15] is reported as 12 to 35 nM.

For `COc1cc(C(=O)c2csc(Nc3ccc(F)cc3)n2)cc(OC)c1OC.Cl` [5Hc, (2-(p-Fluorophenylamino)thiazol-4-yl)(3,4,5-trimethoxyphenyl)methanone hydrochloride salt], the “increased exposure (AUC) by the oral route compared to 1h” value [16] was “more than 4.3 fold”.

With `COc1cc(C(=O)c2cn(S(=O)(=O)c3ccccc3)c(-c3cn(S(=O)(=O)c4ccccc4)c4ccccc34)n2)cc(OC)c1OC` [17yaa, (1-(phenylsulfonyl)-2-(1-(phenylsulfonyl)-1H-indol-3-yl)-1H-imidazol-4-yl)(3,4,5-trimethoxyphenyl)methanone] the “Resistance factor PC-3/TxR vs PC-3” value [17] was 0.4, the IC50 [2] was 5.2 ± 0.2 nM and the IC50 [4] was 21 ± 0.1 nM. The IC50 ([6]; Table 6A, read-out: IC50 B16-F1) was 538 nM and the IC50 [18] was 2.1 ± 0.1 nM.

With `c1cc2ccc(-c3ccc4[nH]ccc4c3)cc2c(-c2ccc3[nH]ccc3c2)n1` [6b, 1,7-Bis-(1H-indol-5-yl)-isoquinoline] the “Half life in Human liver microsome” value [8] was 40 min, the “Half life in Dog liver microsome” value [19] was 30 min and the “Half life in Rat liver microsome” value [20] was 9 min. For the same compound, the “Half life in Mouse liver microsome” value [21] was 10 min and the “Half life in Monkey liver microsome” value [22] was 13 min.

For `COc1cc(C(=O)c2csc(-c3ccc(CN)cc3)n2)cc(OC)c1OC.Cl` [2r, (2-(4-(Aminomethyl)phenyl)thiazol-4-yl)(3,4,5-trimethoxyphenyl)methanone hydrochloride], the increase of solubility [23] was “over 35 fold”, the IC50 [24] was 13 to 80 nM and the IC50 ([14]; Table 5A, P-gp over-expressed, read-out: IC50 NCI/ADR-RES) was 11 ± 2 nM.

In the case of `O=C(c1ccc2[nH]ccc2c1)c1csc(-c2cc3ccccc3[nH]2)n1` [compound 21, (2-(1H-indol-2-yl)thiazol-4-yl)(1H-indol-5-yl)methanone], the “times higher Vss than 1h and 2k” value ([25]; ICR mice) is reported as 2-3 times and the IC50 [24] is reported as 76 to 116 nM.

With `COc1cc(C(=O)c2csc(-c3ccc(F)cc3)n2)cc(OC)c1OC` [2k] the “% T/C” value [26] was 29%, the “inhibition of tubulin polymerization” value ([9]; 10 μM (Example 22)) was 90% and the “dose not causing greater than 10% loss of body weight” value [27] was ≤ 15 mg/kg.

For `COc1cc(C(=O)c2csc(-c3ccc(F)cc3)n2)cc(OC)c1OC` [SMART-F], the AUC ([25]; mice) was 2100 ng·h/mL and the T-C ([26]; Melanoma (A375) xenograft) was 11 days.

`CN(C)/N=N/c1[nH]cnc1C(N)=O` [DTIC] showed a tumor volume reduction [28] of 51%.

With `COc1cc(-c2nccc3ccc(-c4ccc5[nH]ccc5c4)cc23)cc(OC)c1OC` [6a] the “Half life in Human liver microsome” value [8] was 32 min, the “Half life in Dog liver microsome” value [19] was 13 min and the “Half life in Rat liver microsome” value [20] was 12 min. For the same compound, the “Half life in Mouse liver microsome” value [21] was 3.43 min and the “Half life in Monkey liver microsome” value [22] was 16 min.

In the case of `O=C(c1cc(O)c(O)c(O)c1)c1c[nH]c(-c2ccc(O)c(O)c2)n1` [13ha], the IC50 [1] is reported as > 10000 nM, the IC50 [6, 29] is reported as > 10000 nM and the IC50 [7] is reported as > 10000 nM.
